Experimental data reported in article doi:10.1101/2024.08.19.608619, “Discovery of potent SARS-CoV-2 nsp3 macrodomain inhibitors uncovers lack of translation to cellular antiviral response” (bioRxiv, 2024).
Where two headings read alike, the source gives them in different places.

Columns and labels:
SARS-CoV-2 nsp3-mac1 [1] = target: T1, SARS-CoV-2 nsp3-mac1 (Severe acute respiratory syndrome coronavirus 2, UniProt P0DTD1); assay: biochemical; format: biochemical; conditions: SARS-CoV-2 nsp3 macrodomain TR-FRET single point, n=2
SARS-CoV-2 nsp3-mac1 [2] = target: T1, SARS-CoV-2 nsp3-mac1; assay: biochemical; parameters: SARS-CoV-2 nsp3 macrodomain TR-FRET single point, per cent inhibition, n=2
[3] = read-out: perc_inhibition_mean, batch_name=ASAP-0000286-001
[4] = read-out: perc_inhibition_mean, batch_name=ASAP-0000287-001
[5] = read-out: perc_inhibition_mean, batch_name=ASAP-0000288-001
[6] = read-out: perc_inhibition_mean, batch_name=ASAP-0000289-001
[7] = read-out: perc_inhibition_mean, batch_name=ASAP-0000290-001
[8] = read-out: perc_inhibition_mean, batch_name=ASAP-0000291-001
[9] = read-out: perc_inhibition_mean, batch_name=ASAP-0000292-001
[10] = read-out: perc_inhibition_mean, batch_name=ASAP-0000293-001
[11] = read-out: perc_inhibition_mean, batch_name=ASAP-0000294-001
[12] = read-out: perc_inhibition_mean, batch_name=ASAP-0000295-001
[13] = read-out: perc_inhibition_mean, batch_name=ASAP-0000296-001
[14] = read-out: perc_inhibition_mean, batch_name=ASAP-0000297-001
[15] = read-out: perc_inhibition_mean, batch_name=ASAP-0000298-001
[16] = read-out: perc_inhibition_mean, batch_name=ASAP-0000299-001
[17] = read-out: perc_inhibition_mean, batch_name=ASAP-0000300-001
[18] = read-out: perc_inhibition_mean, batch_name=ASAP-0000301-001
[19] = read-out: perc_inhibition_mean, batch_name=ASAP-0000302-001
[20] = read-out: perc_inhibition_mean, batch_name=ASAP-0000303-001

Row | SMILES | perc_inhibition_mean (SARS-CoV-2 nsp3-mac1 [1]; concentration 49.75 uM) [%] | perc_inhibition_mean (SARS-CoV-2 nsp3-mac1 [1]; concentration 99.5 uM) [%] | also measured
1 | CCn1cnc(Nc2ncnc3c2ncn3Cc2cc(OC)no2)c1 [ASAP-0000286] | -16.725 | -12.789 | inhibition at 49.75 µM (SARS-CoV-2 nsp3-mac1 [2]; [3]): -16.7%; inhibition at 99.5 µM (SARS-CoV-2 nsp3-mac1 [2]; [3]): -12.8%
2 | O=C(Nc1ccccc1)Nc1ccc(C(=O)N2CCc3ccncc32)cc1 [ASAP-0000287] | -4.305 | 0.234 | inhibition at 49.75 µM (SARS-CoV-2 nsp3-mac1 [2]; [4]): -4.3%; inhibition at 99.5 µM (SARS-CoV-2 nsp3-mac1 [2]; [4]): 0.234%
3 | O=C(Nc1ccccc1)Nc1ccc(C(=O)N2CCOCC23CCC3)cc1 [ASAP-0000288] | -5.176 | -3.184 | inhibition at 49.75 µM (SARS-CoV-2 nsp3-mac1 [2]; [5]): -5.18%; inhibition at 99.5 µM (SARS-CoV-2 nsp3-mac1 [2]; [5]): -3.18%
4 | C[C@H](NC(=O)c1ccc(NC(=O)Nc2ccccc2)cc1)[C@@H]1CCCO1 [ASAP-0000289] | -4.279 | -4.858 | inhibition at 49.75 µM (SARS-CoV-2 nsp3-mac1 [2]; [6]): -4.28%; inhibition at 99.5 µM (SARS-CoV-2 nsp3-mac1 [2]; [6]): -4.86%
5 | O=C1C[C@H](CNC(=O)c2ccc(NC(=O)Nc3ccccc3)cc2)CCN1 [ASAP-0000290] | 1.223 | 4.013 | inhibition at 49.75 µM (SARS-CoV-2 nsp3-mac1 [2]; [7]): 1.22%; inhibition at 99.5 µM (SARS-CoV-2 nsp3-mac1 [2]; [7]): 4.01%
6 | C[C@H](NC(=O)c1ccc(NC(=O)Nc2ccccc2)cc1)c1ccccn1 [ASAP-0000291] | 2.448 | 0.349 | inhibition at 49.75 µM (SARS-CoV-2 nsp3-mac1 [2]; [8]): 2.45%; inhibition at 99.5 µM (SARS-CoV-2 nsp3-mac1 [2]; [8]): 0.349%
7 | CN(C(=O)c1ccc(NC(=O)Nc2ccccc2)cc1)[C@@H]1CN2CCC1CC2 [ASAP-0000292] | -4.01 | 2.773 | inhibition at 49.75 µM (SARS-CoV-2 nsp3-mac1 [2]; [9]): -4.01%; inhibition at 99.5 µM (SARS-CoV-2 nsp3-mac1 [2]; [9]): 2.77%
8 | CN1CCO[C@H](CNC(=O)c2ccc(NC(=O)Nc3ccccc3)cc2)C1 [ASAP-0000293] | -0.616 | 3.272 | inhibition at 49.75 µM (SARS-CoV-2 nsp3-mac1 [2]; [10]): -0.616%; inhibition at 99.5 µM (SARS-CoV-2 nsp3-mac1 [2]; [10]): 3.27%
9 | Nc1ncnc2c1ncn2Cc1cccc2ncnn12 [ASAP-0000294] | -0.553 | -3.161 | inhibition at 49.75 µM (SARS-CoV-2 nsp3-mac1 [2]; [11]): -0.553%; inhibition at 99.5 µM (SARS-CoV-2 nsp3-mac1 [2]; [11]): -3.16%
10 | O=C(Nc1ccccc1)Nc1ccc(C(=O)N2CCc3nc[nH]c3C2)cc1 [ASAP-0000295] | -3.024 | -2.379 | inhibition at 49.75 µM (SARS-CoV-2 nsp3-mac1 [2]; [12]): -3.02%; inhibition at 99.5 µM (SARS-CoV-2 nsp3-mac1 [2]; [12]): -2.38%
11 | O=C(Nc1ccccc1)Nc1ccc(C(=O)N[C@H]2CC[C@H](CO)CC2)cc1 [ASAP-0000296] | -0.639 | -2.577 | inhibition at 49.75 µM (SARS-CoV-2 nsp3-mac1 [2]; [13]): -0.639%; inhibition at 99.5 µM (SARS-CoV-2 nsp3-mac1 [2]; [13]): -2.58%
12 | CC1(C)CN(C(=O)c2ccc(NC(=O)Nc3ccccc3)cc2)C[C@@]1(F)C(=O)O [ASAP-0000297] | -2.566 | -5.193 | inhibition at 49.75 µM (SARS-CoV-2 nsp3-mac1 [2]; [14]): -2.57%; inhibition at 99.5 µM (SARS-CoV-2 nsp3-mac1 [2]; [14]): -5.19%
13 | O=C(CCN(Cc1cccc(Cl)c1)C(=O)C1(F)CCCCC1)N1CCNCC1 [ASAP-0000298] | -3.576 | 0.185 | inhibition at 49.75 µM (SARS-CoV-2 nsp3-mac1 [2]; [15]): -3.58%; inhibition at 99.5 µM (SARS-CoV-2 nsp3-mac1 [2]; [15]): 0.185%
14 | CCN(Cc1cccnc1)C(=O)c1ccc(NC(=O)Nc2ccccc2)cc1 [ASAP-0000299] | 3.632 | -7.091 | inhibition at 49.75 µM (SARS-CoV-2 nsp3-mac1 [2]; [16]): 3.63%; inhibition at 99.5 µM (SARS-CoV-2 nsp3-mac1 [2]; [16]): -7.09%
15 | Cc1n[nH]cc1CN(C)C(=O)c1ccc(NC(=O)Nc2ccccc2)cc1 [ASAP-0000300] | -3.77 | -0.031 | inhibition at 49.75 µM (SARS-CoV-2 nsp3-mac1 [2]; [17]): -3.77%; inhibition at 99.5 µM (SARS-CoV-2 nsp3-mac1 [2]; [17]): -0.031%
16 | C[C@@H]1CN(C(=O)c2ccc(NC(=O)Nc3ccccc3)cc2)CC(=O)N1 [ASAP-0000301] | -0.707 | 0.29 | inhibition at 49.75 µM (SARS-CoV-2 nsp3-mac1 [2]; [18]): -0.707%; inhibition at 99.5 µM (SARS-CoV-2 nsp3-mac1 [2]; [18]): 0.29%
17 | C[C@@H]1[C@H](O)CCCN1C(=O)c1ccc(NC(=O)Nc2ccccc2)cc1 [ASAP-0000302] | -2.963 | -2.724 | inhibition at 49.75 µM (SARS-CoV-2 nsp3-mac1 [2]; [19]): -2.96%; inhibition at 99.5 µM (SARS-CoV-2 nsp3-mac1 [2]; [19]): -2.72%
18 | O=C(Nc1ccccc1)Nc1ccc(C(=O)N2CCn3nccc3C2)cc1 [ASAP-0000303] | -3.111 | 2.299 | inhibition at 49.75 µM (SARS-CoV-2 nsp3-mac1 [2]; [20]): -3.11%; inhibition at 99.5 µM (SARS-CoV-2 nsp3-mac1 [2]; [20]): 2.3%
